{
  "source": "paper PMC7686308",
  "about": "“Overcoming the blood–brain barrier by Annexin A1-binding peptide to target brain tumours” (British Journal of Cancer, 2020)",
  "key": {"[1]": {"tested_on": "B16-Luc cells", "assay": "B16-Luc rechallenge of brain tumour-recovered mice", "assay_type": "in vivo, mouse (C57BL/6)", "settings": "mice recovered from brain B16-Luc tumours after treatment; 4 days after s.c. injection", "protocol": "(§1) The presence of tumour-infiltrating lymphocytes, especially CD8^+ cytotoxic T cells, is correlated with better prognosis of various cancers.[32],[33] To assess possible involvement of cytotoxic T cells in an antitumour response by host mice, we injected two isogenic cell lines, B16-Luc and LL/2-Luc, into naïve C57BL/6 mice and also into C57BL/6 mice that recovered from brain B16-Luc tumours following IF7C(RR)-SN38 treatment. When these cells were injected subcutaneously in a naïve mouse, both lines formed tumours (Fig. 6a, left).\n(§2) Fig. 6 Immunological rejection of the cancer cells from the mouse recovered from brain tumour by IF7C(RR)-SN38 therapy. a Growth of two syngeneic cancer lines in naïve and brain tumour-recovered mice 4 days after subcutaneous injection of LL/2-Luc or B16-Luc cells. b Immunohistochemistry with anti-CD8 antibody of B16-Luc cells at subcutaneous injection sites, 20 h after B16-Luc cell injection. Scale bars: 100 μm. c Quantitative analysis of CD8^+ cells in subcutaneous injection sites."}, "[2]": {"tested_on": "C6-Luc brain and subcutaneous tumours", "assay": "C6-Luc dual-tumour model in NOD-SCID mice", "assay_type": "in vivo, rat tumour cells in NOD-SCID mice", "protocol": "(§3) C6-Luc cells (5 × 10^4 suspended in 2 μl PBS) were injected into C57BL/6 mouse brain striatum using a stereotaxic frame as described previously.[21] Seven days later, mice underwent imaging for luciferase-expressing tumours. To do so, 100 μl luciferin (30 mg/ml PBS) was injected peritoneally. Mice were then anesthetised under isoflurane gas (20 ml/min) supplemented with oxygen (1 ml/min) and placed under a camera equipped with a Xenogen IVIS 200 imager at both the SBP and AIST animal facilities. Photon numbers were measured for 1–10 sec or for 1 min. For the dual-tumour model, C6-Luc cells were similarly injected into the brain of NOD-SCID mice. When a brain tumour became detectable by IVIS imager, C6-Luc cells (2 × 10^5 suspended in 100 μl PBS) were injected subcutaneously into the dorsal flank of the same mice. Photon numbers in brain and subcutaneous tumours were measured using the IVIS imager. The dual-tumour model was also produced using B16-Luc cells in the isogeneic C57BL/6 mouse. B16-Luc cells (5 × 10^4) were injected into brains of 8–10-weeks-old C57BL/6 female mice as described above for C6-Luc cells. When brain tumours became detectable, B16-Luc cells (2 × 10^5 cells) were injected subcutaneously into the dorsal flank of the same mouse. […]\nNext, to compare drug dosages required to suppress growth of brain versus subcutaneous tumours in vivo, we undertook experiments with a dual-tumour model, in which a single SCID mouse received C6-Luc cells both in brain and under the skin (Fig. 4a, Supplementary Fig. 8A). Mice were then injected intravenously with IF7C(RR)-SN38 and tumour growth in both locations was assessed in vivo by photon number.\nFig. 4 Effect of IF7C(RR)-SN38 on the dual-tumour model mice. a Dual-tumour model was established with C6-Luc cells in NOD-SCID mice. […] Growth of B16-Luc cells were monitored as in a similar manner as in a, followed by intravenous injection with either IF7C(RR)-SN38 (7.0 μmoles/kg), irinotecan (CPT-11) (50 μmoles/kg) or buffer control daily for 6 days. […] Statistical analysis was assessed by Student’s t-test."}, "[3]": {"tested_on": "B16 cells", "assay": "Cytotoxicity on B16 cells (CellTiter Glo)", "assay_type": "cell-based, mouse", "protocol": "(§4) Drug concentration (OM) Drug concentration ( nM) […]\n(§5) Supplementary Fig 7 . Cytotoxicity of peptide-conjugated SN38, free peptide s and unconjugated SN-38 and irinotecan (CPT-11) on C6 and B16 cells cultured in vitro. Rat glioma C6 and mouse melanoma B16 cells were treated with reagents shown along the top panels at the concentration indicated and cultured for 2 days. Cell viability was determined by a CellTiter Glo (Promega) assay. The IC50 of each reagent was determined using GraphPad Prism program. N.D.: not determined."}, "[4]": {"tested_on": "LL/2-Luc cells", "assay": "LL/2-Luc rechallenge of brain tumour-recovered mice", "assay_type": "in vivo, mouse (C57BL/6)", "settings": "mice recovered from brain B16-Luc tumours after treatment; 4 days after s.c. injection", "protocol": "as §1, §2"}, "[5]": {"tested_on": "B16-Luc brain and subcutaneous tumours", "assay": "B16-Luc dual-tumour model in C57BL/6 mice", "assay_type": "in vivo, mouse (C57BL/6)", "protocol": "(§6) C6-Luc cells (5 × 10^4 suspended in 2 μl PBS) were injected into C57BL/6 mouse brain striatum using a stereotaxic frame as described previously.[21] Seven days later, mice underwent imaging for luciferase-expressing tumours. To do so, 100 μl luciferin (30 mg/ml PBS) was injected peritoneally. Mice were then anesthetised under isoflurane gas (20 ml/min) supplemented with oxygen (1 ml/min) and placed under a camera equipped with a Xenogen IVIS 200 imager at both the SBP and AIST animal facilities. Photon numbers were measured for 1–10 sec or for 1 min. For the dual-tumour model, C6-Luc cells were similarly injected into the brain of NOD-SCID mice. When a brain tumour became detectable by IVIS imager, C6-Luc cells (2 × 10^5 suspended in 100 μl PBS) were injected subcutaneously into the dorsal flank of the same mice. Photon numbers in brain and subcutaneous tumours were measured using the IVIS imager. The dual-tumour model was also produced using B16-Luc cells in the isogeneic C57BL/6 mouse. B16-Luc cells (5 × 10^4) were injected into brains of 8–10-weeks-old C57BL/6 female mice as described above for C6-Luc cells. When brain tumours became detectable, B16-Luc cells (2 × 10^5 cells) were injected subcutaneously into the dorsal flank of the same mouse.\n(§7) IF7C(RR)-SN38 was injected intravenously through the tail vein into tumour-bearing mice once photon number of C6-Luc brain tumour reached 5 × 10^4, which usually occurred after 2 weeks. IF7C(RR)-SN38 (142 μg or 0.0567 μmoles) dissolved in 10 μl dimethylsulfoxide (DMSO) diluted with 100 μl of 50% Cremophore EL in ethanol plus 90 μl PBS was injected intravenously through the tail vein. As the average body weight of a mouse was 18 g, IF7C(RR)-SN38 dose per injection was 3.15 μmoles/kg. For B16-Luc brain tumours, IF7C(RR)-SN38 formulated with Cremophore EL was used at the dosage 7.0 μmoles/kg. Irinotecan (CPT-11), a water soluble SN38 prodrug, was dissolved in PBS and intravenously injected into mice at 50 μmoles /kg. In another set of experiments, brain tumour-bearing mice were treated with IF7C(RR)-SN38 (100 μg or 0.0412 μmoles) dissolved in 10 μl DMSO followed by dilution with 100 μl 10% Solutol HS15 in water. In that case, drug dosage was 2.5 μmoles/kg. Similarly formulated C(RR)-SN38 served as control.\nFig. 4 Effect of IF7C(RR)-SN38 on the dual-tumour model mice. a Dual-tumour model was established with C6-Luc cells in NOD-SCID mice. C6-Luc cells were grown both in brain and under the skin of mice. When tumours in brain and subcutaneous grew by showing photon number more than 2×10^4, IF7C(RR)-SN38 (3.15 μmoles/kg) was injected intravenously daily through tail vein for 9 days. b Effect of IF7C(RR)-SN38 on a dual-tumour model with B16-Luc melanoma cells in C57BL/6 mice. Growth of B16-Luc cells were monitored as in a similar manner as in a, followed by intravenous injection with either IF7C(RR)-SN38 (7.0 μmoles/kg), irinotecan (CPT-11) (50 μmoles/kg) or buffer control daily for 6 days. The drug was diluted in Cremophore EL. In each a and b, error bars denote means ± SEM. Statistical analysis was assessed by Student’s t-test."}, "[6]": {"tested_on": "B16-Luc brain tumours", "assay": "B16-Luc brain tumour in C57BL/6 mice, Solutol HS15 formulation", "assay_type": "in vivo, mouse (C57BL/6)", "settings": "2.5 μmoles/kg i.v. daily for 7 days", "protocol": "as §6, §7\nFig. 5 Therapeutic effect of IF7C(RR)-SN38 formulated with Solutol HS15. a Effect of IF7C(RR)-SN38 on B16-Luc brain tumours in C57BL/6 mice. b Effect of IF7C(RR)-SN38 on C6-Luc brain tumours in nude mice. In these experiments, drug dosage was 2.5 μmoles/kg each for IF7C(RR)-SN38 or C(RR)-SN38 (control), diluted with 10% Solutol HS15 in water and administered daily for 7 days. Note that the B16 brain tumours continued shrinking after ceasing administration of IF7C(RR)-SN38 in C57BL/6 mice. In each a and b, error bars denote means ± SEM. Statistical analysis was assessed by Student’s t-test."}, "[7]": {"tested_on": "C6 cells", "assay": "Cytotoxicity on C6 cells (CellTiter Glo)", "assay_type": "cell-based, rat", "protocol": "as §4, §5"}, "[8]": {"tested_on": "CD8+ T cells", "assay": "CD8+ cell infiltration at B16-Luc injection site (immunohistochemistry)", "assay_type": "in vivo, mouse (C57BL/6)", "settings": "recovered C57BL/6 mice; 20 h after B16-Luc s.c. injection (naïve: 0.2 cells/HPF)", "protocol": "as §2"}, "[9]": {"tested_on": "C6-Luc brain tumours", "assay": "C6-Luc brain tumour in nude mice, Solutol HS15 formulation", "assay_type": "in vivo, rat tumour cells in nude mice", "settings": "2.5 μmoles/kg i.v. daily for 7 days, 10% Solutol HS15", "protocol": "as §3, with “cells.” for “cells. When brain tumours became detectable, B16-Luc cells (2 × 10^5 cells) were injected subcutaneously into the dorsal flank of the same mouse.”\nFig. 5 Therapeutic effect of IF7C(RR)-SN38 formulated with Solutol HS15. a Effect of IF7C(RR)-SN38 on B16-Luc brain tumours in C57BL/6 mice. b Effect of IF7C(RR)-SN38 on C6-Luc brain tumours in nude mice. […] Statistical analysis was assessed by Student’s t-test."}, "[10]": {"assay": "LC-MS/MS analysis of SN38 in brain tumours", "assay_type": "in vivo, mouse", "settings": "mice intravenously injected with IF7C(RR)-SN38"}, "[11]": {"settings": "3.15 μmoles/kg i.v. daily, 9 days, Cremophore EL"}, "[12]": {"settings": "7.0 μmoles/kg i.v. daily, 6 days, Cremophore EL"}},
  "note": "Entries after “also recorded” stand apart in the source; their conditions may differ. Peptide text beside a SMILES is read from it. * marks the point of attachment. X1 = CCc1c2c(nc3ccc(OC(=O)C4CCC(CNC(=O)C5CCC(CN6C(=O)CC(*)C6=O)CC5)CC4)cc13)-c1cc3c(c(=O)n1C2)COC(=O)[C@]3(O)CC",
  "data": [
    {"compound": "CCc1c2c(nc3ccc(OC(=O)C4CCC(CNC(=O)C5CCC(CN6C(=O)CC(SC[C@H](NC(=O)[C@H](CCCNC(=N)N)NC(=O)[C@H](CCC(N)=O)NC(=O)[C@H](Cc7c[nH]c8ccccc78)NC(=O)[C@H](CC(C)C)NC(=O)[C@H](CC(C)C)NC(=O)[C@H](Cc7ccccc7)NC(=O)[C@@H](N)[C@@H](C)CC)C(=O)N[C@@H](CCCNC(=N)N)C(=O)N[C@@H](CCCNC(=N)N)C(=O)O)C6=O)CC5)CC4)cc13)-c1cc3c(c(=O)n1C2)COC(=O)[C@]3(O)CC", "note": "(stereo partly drawn) [IF7C(RR)-SN38] (H-IFLLWQRC(X1)RR-OH; N-terminus and C-terminus assumed)", "values": [
      {"measurement": "B16-Luc tumour formation after s.c. rechallenge", "setting": "[1]", "value": "B16-Luc tumours did not appear"},
      {"measurement": "brain tumour growth (photon number)", "setting": "[2]; [11]", "value": "significantly suppressed tumour growth relative to buffer controls"},
      {"measurement": "subcutaneous tumour growth (photon number)", "setting": "[2]; [11]", "value": "significantly suppressed tumour growth relative to buffer controls"},
      {"measurement": "brain versus subcutaneous tumour effect", "setting": "[2]; 3.15 μmoles/kg, C6-Luc, NOD-SCID", "value": "effect of IF7C(RR)-SN38 on brain tumours is comparable to that on subcutaneous tumours"},
      {"measurement": "logIC50", "setting": "[3]; B16, 2 days, CellTiter Glo, GraphPad Prism", "value": 2.171},
      {"measurement": "cytotoxic activity compared with free SN38", "setting": "[3]; in vitro, B16 cells", "value": "comparable to those of free SN38"},
      {"measurement": "LL/2-Luc tumour formation after s.c. challenge", "setting": "[4]", "value": "LL/2-Luc tumours grew"},
      {"measurement": "brain tumour growth (photon number)", "setting": "[5]; [12]", "value": "significantly antagonised growth of both brain and subcutaneous tumours compared to buffer controls"},
      {"measurement": "subcutaneous tumour growth (photon number)", "setting": "[5]; [12]", "value": "significantly antagonised growth of both brain and subcutaneous tumours compared to buffer controls"},
      {"measurement": "brain versus subcutaneous tumour effect", "setting": "[5]; 7.0 μmoles/kg, B16-Luc, C57BL/6", "value": "effect of IF7C(RR)-SN38 on brain tumours is comparable to that on subcutaneous tumours"},
      {"measurement": "B16-Luc brain tumour response during the first week", "setting": "[6]; 10% Solutol HS15", "value": "tumours began shrinking during the first week of daily injections"},
      {"measurement": "B16-Luc brain tumour, final outcome", "setting": "[6]; 10% Solutol HS15", "value": "completely disappeared; also recorded: complete disappearance of brain tumours"},
      {"measurement": "survival after cessation of treatment without signs of B16-Luc cell growth", "setting": "[6]; 10% Solutol HS15", "value": "more than 3 months"},
      {"measurement": "therapeutic effect with Solutol HS15 relative to Cremophore EL", "setting": "[6]; 10% Solutol HS15 in water", "value": "significantly improved"},
      {"measurement": "B16-Luc brain tumour response, second week without injection", "setting": "[6]; then no drug", "value": "continued shrinking during the second week without drug injection"},
      {"measurement": "logIC50", "setting": "[7]; C6, 2 days, CellTiter Glo, GraphPad Prism", "value": 1.812},
      {"measurement": "cytotoxic activity compared with free SN38", "setting": "[7]; in vitro, C6 cells", "value": "comparable to those of free SN38"},
      {"measurement": "CD8+ cell infiltration at injection sites", "setting": "[8]", "value": 92.2, "unit": "cells/HPF"},
      {"measurement": "C6-Luc brain tumour growth", "setting": "[9]", "value": "suppressed the tumour growth"},
      {"measurement": "complete disappearance of C6-Luc brain tumours", "setting": "[9]", "value": "did not promote complete disappearance of brain tumours"},
      {"measurement": "SN38 in brain tumours", "setting": "[10]", "value": "did not detect SN38 in brain tumours"}
    ]}
  ]
}
